Experimental findings from patent US5981498A, “Agent for improving the blood circulation” (Kabushiki Kaisha Hayashibara Seibutsu Kagaku Kenkyujo, priority 1997, dated 1999) are described below.

Assay [1] has as its system lumbago or chronic stiffness in the shoulder. Kind of assay: Clinical test, cataplasm (Table 1). Type of assay: in vivo, human. As to conditions: versus sucrose; Tables 1 and 2. As to the method:
A clinical paramedic conducted the experiment and, after the experiment, asked the therapeutic effect and the side effects of the volunteers. The therapeutic effect was evaluated with four ranks of "very effective", "effective", "unchanged", and "worsened", and the effectivity (%) was calculated as a percentage of the number of volunteers, who answered "very effective" and "effective", to the total number of volunteers.

The subject of assay [2] is blood flow, dorsum cucullaris of volunteer with stiffness in both shoulders. The assay is described as follows: Plethysmogram / volume pulse wave (PTG), improvement of blood circulation. The assay is classed as in vivo, human. The conditions noted are these: similar experiment on vitamin P, cataplasm, MV and PTG.
Text: MV is an apparatus for recording micro-vibration of ballistic components accompanied by muscular fibers in vivo and heartbeat by converting the micro-vibration into an electrodynamic phenomenon where peaks are detected at a high-frequency region in patients with muscular rigidity such as stiffness in the shoulder, and the peaks are shifted to a lower-frequency region as the muscular rigidity is relived. PTG is an apparatus for detecting blood flow as a vascular change in pressure and for expressing change in volume as a wave-height level; When the wave-height level is increased as the increment of blood flow in a stiff part in the shoulder, meaning that blood circulation is improved.
The patient was monitored for both MV and PTG by a polygraph for 20 min, and the data were recorded by a data recorder.
On the next morning, the cataplasm was removed from the volunteer while they were allowed to lay on the bed, followed by attaching pickups to the same part as of the cataplasm for measuring and recording MV and PTG for 30 min and for two hours, respectively, similarly as above.

`OC[C@H]1O[C@H](O[C@H]2O[C@H](CO)[C@@H](O)[C@H](O)[C@H]2O)[C@H](O)[C@@H](O)[C@@H]1O` [trehalose]: the “effect of trehalose on the muscular-rigidity-relieving activity of glycosyl vitamin P” value in assay [1] was “significantly augmented”. As for vitamin P, the “effect as compared with control” value in assay [2] is listed as “substantially showed no remarkable effect”.
